How the values were obtained:
[1] = cells; assay type: functional, cell-based; conditions: Homo sapiens, MM487, 72 h
[2] = tested on: OCI-Ly3; assay: Antiproliferative activity against human OCI-LY3 cells at 10 uM after 72 hrs by MTT assay relative to control; assay type: functional
[3] = tested on: HepG2; assay: Antiproliferative activity against human HepG2 cells after 72 hrs by SRB assay; assay type: functional, cell-based; conditions: HepG2, 72 h
[4] = tested on: A2780; assay: cells; assay type: functional, cell-based; conditions: Homo sapiens, A2780, 72 h
[5] = tested on: DG-75; assay: cells; assay type: functional, cell-based; conditions: Homo sapiens, DG-75, 72 h
[6] = tested on: DG-75; assay: Antiproliferative activity against human DG75 cells at 10 uM after 72 hrs by MTT assay relative to control; assay type: functional
[7] = tested on: OCI-Ly3; assay: cells; conditions: Homo sapiens, OCI-Ly3, 72 h
[8] = tested on: CAPAN-1; assay: cells; assay type: functional, cell-based; conditions: Homo sapiens, CAPAN-1, 72 h
[9] = tested on: KM-H2; assay: Antiproliferative activity against human KM-H2 cells at 10 uM after 72 hrs by MTT assay relative to control; assay type: functional
[10] = tested on: L-428; assay: cells; assay type: functional, cell-based; conditions: Homo sapiens, L-428, 72 h
[11] = cells; assay type: functional, cell-based; conditions: Homo sapiens, 72 h
[12] = tested on: A-431; assay: cells; assay type: functional, cell-based; conditions: Homo sapiens, A-431, 72 h
[13] = cells; assay type: functional, cell-based; conditions: Homo sapiens, A2780/DX, 72 h
[14] = tested on: JeKo-1; assay: cells; assay type: functional, cell-based; conditions: Homo sapiens, JeKo-1, 72 h
[15] = tested on: MM473; assay: animal or person; conditions: Mus musculus, MM473, iv, read-out: INH
[16] = tested on: HeLa; assay: cells; assay type: functional, cell-based; conditions: Homo sapiens, 72 h
[17] = tested on: NCI-H460; assay: cells; assay type: functional, cell-based; conditions: Homo sapiens, NCI-H460, 72 h
[18] = cells; assay type: functional, cell-based; conditions: Homo sapiens, 72 h; remark: listed apart in the source
[19] = Antiproliferative activity against human Mino cells at 10 uM after 72 hrs by MTT assay relative to control; assay type: functional
[20] = tested on: JeKo-1; assay: Antiproliferative activity against human JeKo1 cells at 10 uM after 72 hrs by MTT assay relative to control; assay type: functional
[21] = tested on: KM-H2; assay: cells; conditions: Homo sapiens, KM-H2, 72 h
[22] = tested on: HT-29; assay: Antiproliferative activity against human HT-29 cells after 72 hrs by SRB assay; assay type: functional, cell-based; conditions: HT-29, 72 h
[23] = tested on: NB-4; assay: cells; assay type: functional, cell-based; conditions: Homo sapiens, NB-4, 72 h
[24] = tested on: DU-145; assay: cells; assay type: functional, cell-based; conditions: Homo sapiens, DU-145, 72 h
[25] = tested on: L-428; assay: Antiproliferative activity against human L428 cells at 10 uM after 72 hrs by MTT assay relative to control; assay type: functional
[26] = cells; assay type: functional, cell-based; conditions: Homo sapiens, MINO, 72 h
[27] = tested on: U2932; assay: cells; assay type: functional, cell-based; conditions: Homo sapiens, U2932, 72 h

| SMILES | IC50 [3] | IC50 [4] | IC50 [8] | IC50 [12] | IC50 [13] | IC50 [16] | IC50 [17] | IC50 [22] | IC50 [24] | other results |
| --- | --- | --- | --- | --- | --- | --- | --- | --- | --- | --- |
| CCc1c2c(nc3ccc(OC(=O)N4CCC(N5CCCCC5)CC4)cc13)-c1cc3c(c(=O)n1C2)COC(=O)[C@]3(O)CC [IRINOTECAN] | 4000 nM | 3800 nM | 1500 nM | 4100 nM | 20100 nM | 5800 nM | 2400 nM | 4800 nM | 2800 nM | IC50 [1]: 9400 nM; Activity [2]: 0%; IC50 [5]: > 10000 nM; Activity [6]: 0%; IC50 [7]: > 10000 nM; Activity [9]: 12%; IC50 [10]: > 10000 nM; IC50 [11]: 10000 nM; IC50 [14]: > 10000 nM; inhibition in vivo at 20 mg/kg [15]: 37%; IC50 [18]: 740 nM; Activity [19]: 36%; Activity [20]: 48%; IC50 [21]: > 10000 nM; IC50 [23]: 1000 nM; Activity [25]: 0%; IC50 [26]: > 10000 nM; IC50 [27]: 4400 nM |
| CC[C@@]1(O)C(=O)OCc2c1cc1n(c2=O)Cc2c-1nc1ccccc1c2/C=N/OCCCCCC(=O)NCCSSCCNC(=O)/C(Cc1ccc(O)cc1)=N\O | 610 nM | 290 nM | 75 nM | 310 nM | 1600 nM | 580 nM | 220 nM | 460 nM | 190 nM |  |

Reference: ChEMBL document CHEMBL4251569, “Camptothecin-psammaplin A hybrids as topoisomerase I and HDAC dual-action inhibitors” (Eur J Med Chem, 2018)
